Each structure is given as a SMILES string.

The subject of the assay is vTT infected 7b cells. The assay is described as follows: Detection of apoptosis (DePsipher MPT; CaspACE activated caspases). Type of assay: cell-based. As to conditions: overnight capsaicin (3 μm) stimulation. As for the experimental part:
Detection of Apoptosis. The DePsipher kit (R&D systems, Minneapolis, Minn.) was used to detect the initiation of mitochondrial permeability transition (MPT) in 7b cells. Briefly, vTT or QOZ infected cells (12 hpi, 0.1 PFU/cell) were incubated with 3 μm capsaicin for one hour at 37° C. in a 5% CO2 incubator. Cells were then loaded with 1 μl DePsipher/ml in pre-warmed culture media for 15-20 min at 37° C. in a 5% CO2 incubator. Following two washes in prewarmed media, cells were immediately imaged using an inverted fluorescence microscope (Carl Zeiss Inc.). For activated caspase detection, the CaspACE FITC-VAD-FMK In-Situ Marker kit (Promega, Madison, Wis.) was used. Briefly, CaspACE FITC-VAD-FMK was added to a final concentration of 10 μM to 7b cells infected with vTT or QOZ virus (12 hpi, 0.3 PFU/cell). Cells were incubated for 20 minutes at 37° C. in a 5% CO2 incubator. Following two washes in PBS, cells were fixed for 30 minutes in 10% formalin, washed three times with PBS and imaged using an inverted fluorescence microscope (Carl Zeiss Inc.).

Take `COc1cc(CNC(=O)CCCC/C=C/C(C)C)ccc1O` [capsaicin]: the activated caspases entry was “positive”.

The record behind these values is patent US20060275812A1, “Assay for agonists and antagonists of ion channels and for regulators of genetic expression” (University of Pittsburgh of the Commonwealth System of …, priority 2005, published 2006).
